Literature values, collected in patent publication US20070042999A1, “Phosphate derivatives of pharmaceutical products” (priority 2003, published 2007).

Experiments:
[1] = in vivo
[2] = administered orally

Row | SMILES | bioavailability [1] | fraction of the administered dose available in the active form [2]
1 | N[C@@H](Cc1cc(I)c(Oc2cc(I)c(O)c(I)c2)c(I)c1)C(=O)O [Thyroxine, thyroxine] | 50-80% | –
2 | C[C@]12CC[C@H]3[C@@H](CCC4=CC(=O)CC[C@@]43C)[C@@H]1CC[C@@H]2O [testosterone] | – | less than one sixth
